What was measured:
[1] = Plasma versus brain concentration after subcutaneous administration in mice; conditions: mouse, in vivo
Protocol: The concentration of selected compounds in plasma (FIG. 8A) versus concentration in brain (FIG. 8A) was assessed after administration in a mice. Briefly, mice are administered with selected compounds via subcutaneous route. Thirty minutes after the compound administration, plasma and brain samples are collected. Concentrations of the selected compounds in plasma and brains are determined by LC/MS/MS.

[2] = tested on: Transgenic mice expressing amyloid beta protein precursor (APP); experiment: Morris water maze in transgenic mice expressing amyloid beta protein precursor (APP); type: in vivo; conditions: 10 mg/kg subcutaneous, chronic
Protocol: Mice are tested in a large water tank (178 cm in diameter; 22.0±1.5° C.) with a submerged 17 cm diameter circular platform (˜1 cm below the water surface and ˜50 cm away from the wall). Non-toxic tempera paints (Elmers) are used to make the water opaque. Privacy blinds with four different visual cues surrounded the tank and are located ˜150 cm from the center of the tank. Testing is performed under dim white light (40 Lux at the water surface). Activity is monitored with Ethovision via an overhead video system. Mice complete 4-6 days of hidden platform training (60 seconds to locate the platform when released from a pseudorandomized drop location). […] Successful leaming of MWM is determined by reduced escape latency and discriminative quadrant exploration during the probe trial. […]
Transgenic mice expressing amyloid beta protein precursor (APP) and wild-type mice were chronically administered with KSN01-01-18 (10 mg/kg, subcutaneous). Changes on body weight were recorded. Effects of KSN01-01-18 on cognitive function were evaluated in Morris water maze (MWM). […] Successful learning of MWM was determined by the gradual decrease in escape latency during the hidden platform training and discriminative quadrant exploration and latency to reach virtual platform during the probe trial.

[3] = Body weight changes on chronic administration in mice; type: in vivo; conditions: 10 mg/kg subcutaneous
Protocol: Transgenic mice expressing amyloid beta protein precursor (APP) and wild-type mice were chronically administered with KSN01-01-18 (10 mg/kg, subcutaneous). Changes on body weight were recorded. Effects of KSN01-01-18 on cognitive function were evaluated in Morris water maze (MWM). Briefly, In the MWM, a large water tank (178 cm in diameter) filled with water was used. A circular platform was placed about 1 cm below the water surface approximately 17 cm away from the wall in one 20 quadrant of the tank. Nontoxic tempera paints were used to make the water opaque. During the consecutive days of hidden platform training, mice were released from drop locations and given 60 sec to find the platform. Upon completion of the hidden platform training, the platform was removed and a 60-sec probe trial was conducted. Successful learning of MWM was determined by the gradual decrease in escape latency during the hidden platform training and discriminative quadrant exploration and latency to reach virtual platform during the probe trial.

C57BI/6J female mice = experiment: 24 day administration, lung and heart weight and fibrosis; type: in vivo; conditions: 10 mg/kg for 24 days
Protocol: C57BI/6J female mice were administered with isoproterenol, KSN01-01-15, or KSN01-01-18 at 10 mg/kg for 24 days. After 24 days of treatment, mice were sacrificed, and lung and heart weight were measured. Hearts were then fixed in 10% formalin, and stained with Masson trichrome for evaluation of fibrosis.

Structure (SMILES): Cc1n[nH]c2cccc(OC[C@@H](O)CNCCNC(=O)N3CCOCC3)c12 [Compound 38]
- crossing the blood brain barrier [1]: not capable of crossing the blood brain barrier

Structure (SMILES): Cc1n[nH]c2cccc(OC[C@@H](O)CNCc3ccn(C)n3)c12 [Compound 92]
- cognitive function in Morris water maze (time to find the virtual platform) [2]: cognitive enhancing effects
- general toxicity as measured by changes in body weight [3]: does not cause general toxicity
- fibrotic changes in heart and heart weight (C57BI/6J female mice): did not induce these changes
- fibrotic changes in lung and lung weight (C57BI/6J female mice): did not induce these changes
- morphological changes in heart (C57BI/6J female mice): did not induce these changes
